This note sets out measurements from patent publication US20250018019A1, “TREATMENT OF INTERFERON DRIVEN INFLAMMATION” (The Provost, Fellows, Foundation Scholars and the other …, priority 2023, published 2025).

Common to all, as to format: cell-based, mouse
The test system of assay [1] is BMDMs. Kind of assay: RT-qPCR gene expression in BMDMs. Conditions: for IL-1β expression / Il10 expression / Tnfa expression: BMDMs pre-treated 3 h; for Ifnb1 expression following Nrf2 silencing: Nrf2 siRNA. The protocol:
(§1) All compounds used DMSO as a vehicle except for 4-hydroxy tamoxifen (EtOH), NAC (PBS), and AOAA for tracing experiments (Media). LPS was used at a concentration of 100 ng/ml for indicated timepoints (2, 3, 4, 6, 8, 24, 48 h). FHIN1 (10 or 20 μM), MMF (50 or 100 μM), DMF (25 μM), AOAA (5 mM), oligomycin (10 μM), CCCP (50 μM) NAC (1 mM), and IMT1 (10 μM) pre-treatments were performed for 3 h prior the addition of LPS. Cells were treated with valinomycin (10 nM) 15 mins before LPS stimulation. Anti-CD210 or IgG control (10 μg/ml) antibodies were added to cells 1 h prior to LPS stimulation. Recombinant mouse IL-10 protein (100 ng/ml) was added to cells at the same time as LPS. Cells were treated with IFN-B1 (220 ng/ml) for 3 h. Cells were treated with C-178 (1 μM) 1 h prior to LPS stimulation or transfection with 2′3′-cGAMP (1.5 μg/ml) for 4 hrs to achieve cGAS-STING activation. Cells were treated with ODN 2088 (1 μM) for 1 hr prior to LPS stimulation or transfection with CPG ODN 1826 (1.5 μg/ml) to achieve TLR9 activation. 3 different timepoints of 4-hydroxy tamoxifen (TAM) (600 nM or 2 μM) or EtOH treatment were performed-these are specified in the individual figure legends. For ‘48 h’ treatments EtOH/TAM was added on day 5 of 6 during the BMDM differentiation protocol. On day 6 they were plated with EtOH/TAM (left overnight) and treated the following day. For ‘72 h’ treatments EtOH/TAM was added on day 4 of 6 during the BMDM differentiation protocol. On day 6 they were plated with EtOH/TAM (left overnight) and treated the following day. For ‘96 h’ treatments EtOH/TAM was added on day 4 of 6 during the BMDM differentiation protocol. On day 6 they were plated with EtOH/TAM and treated 2 days later.
RNA extraction from cells was carried out using a Purelink™ RNA kit (Invitrogen) according to the manufacturer's instructions. BMDMs were treated as required, and following treatment were instantly lysed in 350 μl RNA lysis buffer. Isolated RNA was quantified using a NanoDrop 2000 spectrophotometer, and RNA concentration was normalised to the lowest concentration across all samples with RNAse-free water. If necessary, samples were DNAse-treated after quantification using DNAse I (Thermo Fisher) according to the manufacturer's instructions. Isolated RNA samples were normalised and converted into cDNA using the High-Capacity cDNA Reverse Transcription Kit (Thermo Fisher) according to manufacturer's instructions. 10 μl of RNA (at a maximum concentration of 100 ng/μl) was added to 10 μl of reverse transcription master mix to complete the reaction mixture. Real-time quantitative PCR was performed on the cDNA generated in the previous step, using primers designed in-house and ordered from Eurofins Genomics, as detailed in Table S2. The reaction was performed in a 96-well qPCR plate by a 7500 Fast Real-Time PCR machine (Thermo Fisher). Relative expression (2^−ΔΔCT) was calculated from the CT values for each sample and gene of interest.
Pre-designed silencer select siRNAs for Cgas (s103166), Tmem173 (s91058), Tlr3 (s100579), Tlr9 (s96268), As/(s99640), Tlr7 (s100720), Ddx58 (s106376), Ifih1 (s89787), Nrf2 (s70522), Atf4 (s62689) and negative control (4390843) were ordered from Thermo Fisher. siRNA sequences are given in Table S2. Cells were transfected with 50 nM siRNA using 5 μl lipofectamine RNAiMAX according to manufacturer's instructions (Thermo Fisher). Cells were transfected in medium without serum and antibiotics which was replaced with complete medium 8 hours later. Cells were subsequently left for at least a further 12 hours prior to treatment.

Assay [2] concerns BMDMs. As to the kind of experiment: Seahorse XF Mito Stress Test (respirometry, OCR). The note with it: BMDMs pre-treated 3 h, LPS 4 h. Here is the method:
as §1, with “For ‘72 h’ treatments EtOH/TAM was added on day 4 of 6 during the BMDM differentiation protocol. On day 6 they were plated with EtOH/TAM (left overnight) and treated the following day. For ‘96 h’ treatments EtOH/TAM was added on day 4 of 6 during the BMDM differentiation protocol. On day 6 they were plated with EtOH/TAM and treated 2 days later.” left out

Assay [3] relates to BMDMs. As to the kind of experiment: Immunofluorescence, Mitotracker Red and dsRNA. The note with it: LPS 4 h. The protocol: as §1
Cells were plated on 20 mm cover slips in 12-well plates. Cells were treated as required and Mitotracker Red CMXRos (100 nM, Thermo Fisher), was added to medium 30 mins prior to end of cell treatments. After 30 min incubation, cells were washed three times with warm PBS. Cells were subsequently fixed for 10 mins with 4% paraformaldehyde/PBS at 37° C. Cells were washed three times with PBS and permeabilized for 1 hour in block solution (1% BSA, 22.52 mg/ml glycine, 0.1% tween 20 in PBS). Anti-dsRNA antibody (Merck) was diluted 1/60 in block solution and incubated with cells overnight at room temperature. Cells were washed three times with PBS for 5 mins/wash. […] Images were analysed using the LAS X Life Science Microscope Software Platform (Leica). The same microscope instrument settings were used for all samples and all images were analysed using the same settings. […] Quantification of dsRNA or Mitotracker Red CMXRos signal intensity was performed using the measure function in ImageJ 1.53t (NIH).

Structures can show the parent of a compound that is named as a salt.

Turning to `COC(=O)/C=C/C(=O)OC` [DMF, dimethyl fumarate], in assay [1] (LPS 4 h), the IL-1β expression entry is “reduced”, the Il10 expression entry is “decreased” and the Tnfa expression result is “increased”. Further, the Tmem173 expression result in assay [1] (BMDMs pre-treated, LPS 4 h) is “Suppression”. Further, the “Ifnb1 expression following Nrf2 silencing” value in assay [1] (BMDMs, LPS 4 h) was “increased”. For the same compound, the “basal respiration, ATP production and maximal respiration as measured by OCR” value in assay [2] was “no effect”.
Turning to `CCOC(=O)[C@@]12CCCC=C1N(Cc1ccc(-c3ccccc3)cc1)C(=O)[C@H]2CC(=O)NC` [FHIN1, Fumarate hydratase-IN-1], in assay [1] (LPS 4 h), the IL-1β expression result is on record as “reduced”, the Il10 expression entry is recorded as “decreased” and the Tnfa expression result is “increased”. Besides, in assay [1] (BMDMs pre-treated, LPS 4 h), the Ddx58 expression result is recorded as “reduced” and the Tmem173 expression entry was “Suppression”. Besides, the “Ifnb1 expression following Nrf2 silencing” value in assay [1] (BMDMs, LPS 4 h) was “increased”. Further, the “dependence of the FHIN1 IFN-β increase on NAC-sensitive redox stress (Ifnb1 expression)” value in assay [1] (BMDMs, in the presence of NAC, LPS 4 h) was “independent of NAC-sensitive redox stress”. Moreover, the “dependence of FHIN1-driven GDF15 on NRF2 and ATF4” value in assay [1] (BMDMs, silencing of Nrf2 or Atf4, LPS 4 h) is “partly NRF2-but not ATF4-dependent”. In assay [1] (WT and Mavs−/− BMDMs, LPS 4 h), the “induction of IFN-β (Ifnb1) in MAVS knockout BMDMs” value is “did not impair”. For the same compound, in assay [2], the “basal respiration, ATP production and maximal respiration as measured by OCR” value is on record as “impaired”. In addition, the “staining intensity of mitotracker RED (mtRED), MMP-dependent dye” value in assay [3] (BMDMs pre-treated 3 h) is recorded as “increased staining intensity”. The “dsRNA accumulation (immunofluorescence)” value in assay [3] (BMDMs pre-treated, relative to DMSO control) is recorded as “accumulation”.
